Source: patent US20230416261A1, “ETHANEDIAMINE-HETEROCYCLE DERIVATIVES AS INHIBITORS OF PROTEIN ARGININE METHYLTRANSFERASES” (Board of Regents, The University of Texas System, priority 2021, published 2023)

Experiments:
PRMT1 [1] = biological target: T1, PRMT1 (Homo sapiens, UniProt Q99873); experiment: PRMT1 Enzymatic Assay (LANCE TR-FRET, methylation of histone H4 at Arg3); format: biochemical; parameters: purchased SignalChem P365-380G; settings: PRMT1 1.5 nM, SAM 1 μM, biotinylated histone H4 (1-21) 25 nM; read-out: PRMT-1 IC50
T1 sequence (Q99873 whole entry): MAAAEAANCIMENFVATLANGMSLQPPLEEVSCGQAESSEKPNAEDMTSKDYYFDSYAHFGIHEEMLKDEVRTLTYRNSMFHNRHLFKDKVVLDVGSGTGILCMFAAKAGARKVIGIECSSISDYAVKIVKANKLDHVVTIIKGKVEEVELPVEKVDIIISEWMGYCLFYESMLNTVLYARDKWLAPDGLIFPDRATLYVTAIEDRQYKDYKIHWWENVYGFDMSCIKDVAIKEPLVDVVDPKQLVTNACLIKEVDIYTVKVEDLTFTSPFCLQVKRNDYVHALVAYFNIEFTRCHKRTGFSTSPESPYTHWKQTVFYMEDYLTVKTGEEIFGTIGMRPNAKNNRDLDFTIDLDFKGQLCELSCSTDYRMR
Procedure, shortened: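 PRMT1 (1.5 nM) preincubated 15 min with compound at room temperature, then reacted 1 h with 1 μM SAM and 25 nM biotinylated histone H4 (1-21) in 50 mM Hepes pH 8, 1 mM TCEP, 0.003% Tween-20. H4R3me detected by TR-FRET (665/620 nm ratio); IC50 from four-parameter logistic fit.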

DOHH2 cells = experiment: DOHH2 Long Term Phenotypic Assay (7 days, Cell Titer-Glo viability); format: cell-based; settings: Homo sapiens, DOHH-2, 168 h, Cell Titer-Glo 2.0
Procedure, shortened: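 DOHH2 lymphoma cells (250 per well) in RPMI-1640 with 10% FBS were exposed to 1:3 serially diluted compounds for 7 days at 37 °C, 5% CO2. Viability was read by CellTiter-Glo 2.0 luminescence, and IC50 values came from four-parameter logistic fits.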

PRMT1 [2] = biological target: T1, PRMT1; experiment: PRMT1 RKO Cellular Target Engagement Assay (In-Cell Western, asymmetric di-methyl arginine); format: cell-based; settings: RKO cells, 48 hr compound incubation; read-out: RKO IC50 (PRMT-1 Target Engagement)
Procedure, shortened: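 RKO cells (1,000/well) received 1:3 serially diluted compound for 48 h at 37 °C, then were fixed, permeabilised and immunostained for asymmetric di-methyl arginine by In-Cell Western. The 800 nm antibody signal was normalised to CellTag 700 nm; IC50 from four-parameter logistic fit.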

PATC53 cells = experiment: PATC53 Long Term Phenotypic Assay (14 days, crystal violet viability); format: cell-based; settings: 336 h
Description: PATC53 cells were derived from the PATC53 PDX model and kindly provided by Jason Fleming (MDACC). The cells were routinely maintained in DMEM/F12 Medium (Corning, Catalog #10-090-CV) supplemented with 10% fetal bovine serum (Sigma, Catalog #F2442), 100 units/mL penicillin and 100 μg/mL streptomycin (Gibco, Catalog #15140-122) in a humidified incubator (37° C., 5% CO2). Prior to the assay, cells were seeded onto a 12-well, TC treated plate (Corning, catalog #353043) at a density of 250 cells per well in a volume of 1 mL. The plate was incubated for 24 hours at 37° C. and 5% CO2. Stock solutions of the test compounds were prepared in 100% DMSO (Sigma, Catalog #D2650) and serially diluted 1:3 using 100% DMSO. Compounds were additionally diluted 1:100 in culture medium, and 110 μL/well was transferred to the tissue culture plate. Following the compound addition, the plate was incubated at 37° C. and 5% CO2 for 14 days. Viability was then assessed by crystal violet staining (Fisher Scientific, Catalog #C58125) as follows: 450 μL of crystal violet (1 mg/mL) was added to the plate for a 10 minute incubation at room temperature. After incubation, the plate was washed 3× with distilled water to remove excess dye and allowed to dry overnight. The crystal violet was solubilized using 10% HOAc (500 μL) for 10 minutes at room temperature, while shaking. A volume of 100 μL was then transferred to a 96-well SpectraPlate (Perkin Elmer, Catalog #6005649). Absorbance at 590 nm was measured with a BioTek Synergy Neo. IC50 values were calculated using a four-parameter logistic curve fit using Genedata Screener software.

Compound	IC50 (PRMT1 [1]) [nM]	IC50 (PRMT1 [2]) [nM]	IC50 (DOHH2 cells) [nM]	IC50 (PATC53 cells) [nM]
CNCCN(C)Cc1nn2c(c1C1CCC(COC)(COC)CC1)CN(C(=O)C1(C#N)CC1)CC2 [Example 15, 1-(3-(4,4-bis(methoxy-methyl)cyclohexyl)-2-((methyl(2-(methylamino)-ethyl)amino)methyl)-4,5,6,7-tetrahydropyrazolo[1,5-a]-pyrazine-5-carbonyl)cyclopropane-1-carbonitrile]	71	370	211	732
CNCCN(C)Cc1nn2c(c1C1CCC(COC)(COC)CC1)CN(C(=O)C(C)C)CC2 [Example 24, 1-(3-(4,4-bis(methoxy-methyl)cyclohexyl)-2-((methyl(2-(methylamino)-ethyl)amino)methyl)-6,7-dihydropyrazolo[1,5-a]-pyrazin-5(4H)-yl)-2-methylpropan-1-one]	76	254	103	69
CNCCN(C)Cc1nn2c(c1C1CCC(COC)(COC)CC1)CN(C(=O)C1(C(F)(F)F)CC1)CC2 [Example 18, (3-(4,4-bis(methoxymethyl)-cyclohexyl)-2-((methyl(2-(methylamino)ethyl)amino)-methyl)-6,7-dihydropyrazolo-[1,5-a]pyrazin-5(4H)-yl)(1-(trifluoro-methyl)cyclopropyl)-methanone]	60	137	142	48
CNCCN(C)Cc1nn2c(c1C1CCC(COC)(COC)CC1)CN(C(=O)C1(OC)CC1)CC2 [Example 14, (3-(4,4-bis(methoxymethyl)-cyclohexyl)-2-((methyl(2-(methylamino)ethyl)amino)-methyl)-6,7-dihydropyrazolo-[1,5-a]pyrazin-5(4H)-yl)(1-methoxycyclopropyl)-methanone]	94	124	211	478
CNCCN(C)Cc1nn2c(c1C1CCC(COC)(COC)CC1)CN(C(=O)C1CCCC1)CC2 [Example 33, (3-(4,4-bis(methoxymethyl)-cyclohexyl)-2-((methyl(2-(methylamino)ethyl)amino)-methyl)-6,7-dihydropyrazolo-[1,5-a]pyrazin-5(4H)-yl)-(cyclopentyl)methanone]	55	120	83	55
CNCCN(C)Cc1nn2c(c1C1CCC(COC)(COC)CC1)CN(C(=O)C1CC(OC)C1)CC2 (stereo not drawn) [Example 58, (3-(4,4-bis(methoxymethyl)-cyclohexyl)-2-((methyl(2-(methylamino)ethyl)amino)-methyl)-6,7-dihydropyrazolo-[1,5-a]pyrazin-5(4H)-yl)(3-methoxycyclobutyl)-methanone]	65	372	131	131
CNCCN(C)Cc1nn2c(c1C1CCC(COC)(COC)CC1)CN(C(=O)COC)CC2 [Example 30, 1-(3-(4,4-bis(methoxy-methyl)cyclohexyl)-2-((methyl(2-(methylamino)-ethyl)amino)methyl)-6,7-dihydropyrazolo[1,5-a]-pyrazin-5(4H)-yl)-2-methoxyethan-1-one]	81	795	159	795
CNCCN(C)Cc1nn2c(c1C1CCC(COC)(COC)CC1)CN(C(=O)CC1CC1)CC2 [Example 27, 1-(3-(4,4-bis(methoxy-methyl)cyclohexyl)-2-((methyl(2-(methylamino)-ethyl)amino)methyl)-6,7-dihydropyrazolo[1,5-a]-pyrazin-5(4H)-yl)-2-cyclopropylethan-1-one]	59	318	79	115
CNCCN(C)Cc1nn2c(c1C1CCC(COC)(COC)CC1)CN(C(=O)C13CC(F)(C1)C3)CC2 [Example 21, (3-(4,4-bis(methoxymethyl)-cyclohexyl)-2-((methyl(2-(methylamino)ethyl)amino)-methyl)-6,7-dihydropyrazolo-[1,5-a]pyrazin-5(4H)-yl)(3-fluorobicyclo[1.1.1]pentan-1-yl)methanone]	53	185	96	68

Now those with a lower IC50 (PRMT1 [1]), led by results:

IC50 (PRMT1 [1]) [nM]	IC50 (PRMT1 [2]) [nM]	Compound	IC50 (DOHH2 cells) [nM]	IC50 (PATC53 cells) [nM]
48	110	CCOCC1(COCC)CCC(c2c(CN(C)CCNC)nn3c2CN(C(=O)C2CC2)CC3)CC1 [Example 4, (3-(4,4-bis(ethoxymethyl)-cyclohexyl)-2-((methyl(2-(methylamino)ethyl)amino)-methyl)-6,7-dihydropyrazolo-[1,5-a]pyrazin-5(4H)-yl)-(cyclopropyl)methanone]	47	1260
46	293	CNCCN(C)Cc1nn2c(c1C1CCC(COC)(COC)CC1)CN(C(=O)C1CCCO1)CC2 (stereo not drawn) [Example 32, (3-(4,4-bis(methoxymethyl)-cyclohexyl)-2-((methyl(2-(methylamino)ethyl)amino)-methyl)-6,7-dihydropyrazolo-[1,5-a]pyrazin-5(4H)-yl)-(tetrahydrofuran-2-yl)-methanone]	160	163
27	460	COCC1(COC)CCC(c2c(CN(C)CCN)nn3c2CN(C(=O)C(C)C)CC3)CC1 [Example 43, 1-(2-(((2-aminoethyl)-(methyl)amino)methyl)-3-(4,4-bis(methoxymethyl)-cyclohexyl)-6,7-dihydro-pyrazolo[1,5-a]pyrazin-5(4H)-yl)-2-methylpropan-1-one]	185	149
23	1950	COCC1(COC)CCC(c2c(CN(C)CCN)nn3c2CN(C(=O)C2CC(C)(C)C2)CC3)CC1 [Example 61, (2-(((2-aminoethyl)(methyl)-amino)methyl)-3-(4,4-bis-(methoxymethyl)cyclohexyl)-6,7-dihydropyrazolo[1,5-a]-pyrazin-5(4H)-yl)(3,3-dimethylcyclobutyl)-methanone]	224	68
18	830	COCC1(COC)CCC(c2c(CN(C)CCN)nn3c2CN(C(=O)C24CC(F)(C2)C4)CC3)CC1 [Example 45, (2-(((2-aminoethyl)(methyl)-amino)methyl)-3-(4,4-bis-(methoxymethyl)cyclohexyl)-6,7-dihydropyrazolo[1,5-a]-pyrazin-5(4H)-yl)(3-fluorobicyclo[1.1.1]pentan-1-yl)methanone]	175	178
17	210	COCC1(COC)CCC(c2c(CN(C)CCN)nn3c2CN(C(=O)C24CC(C2)C4)CC3)CC1 [Example 44, (2-(((2-aminoethyl)(methyl)-amino)methyl)-3-(4,4-bis-(methoxymethyl)cyclohexyl)-6,7-dihydropyrazolo[1,5-a]-pyrazin-5(4H)-yl)(bicyclo-[1.1.1]pentan-1-yl)methanone]	150	123
16	1210	COCC1(COC)CCC(c2c(CN(C)CCN)nn3c2CN(C(=O)C2CCC2)CC3)CC1 [Example 11, (2-(((2-aminoethyl)(methyl)-amino)methyl)-3-(4,4-bis-(methoxymethyl)cyclohexyl)-6,7-dihydropyrazolo[1,5-a]-pyrazin-5(4H)-yl)-(cyclobutyl)methanone]	111	70
15	671	COCC1(COC)CCC(c2c(CN(C)CCN)nn3c2CN(C(=O)C2(F)CC2)CC3)CC1 [Example 47, (2-(((2-aminoethyl)(methyl)-amino)methyl)-3-(4,4-bis-(methoxymethyl)cyclohexyl)-6,7-dihydropyrazolo[1,5-a]-pyrazin-5(4H)-yl)(1-fluorocyclopropyl)methanone]	187	45
14	361	COCC1(COC)CCC(c2c(CN(C)CCN)nn3c2CN(C(=O)C2CC2)CC3)CC1 [Example 6, (2-(((2-aminoethyl)(methyl)-amino)methyl)-3-(4,4-bis-(methoxymethyl)cyclohexyl)-6,7-dihydropyrazolo[1,5-a]-pyrazin-5(4H)-yl)-(cyclopropyl)methanone]	138	147
